# In the NIST ThermoML archive (doi:10.1021/acs.jced.7b00717):
# ± gives the expanded uncertainty stated by the source.
# Tests used:
# [1] = refractive index (other wavelength) (dimensionless); xn = mol fraction of the nth substance listed; conditions: Liquid, Wavelength=532 nm
# [2] = xn = mol fraction of the nth substance listed; conditions: Liquid, dynamic ligfht scattering
compound,measurement,setting,value
OCC(O)CO [glycerol] + O,refractive index,"[1]; 295.65 K, Standard Abbe refractometry, x1 = 0.299",1.422 ± 0.001
same,refractive index,"[1]; 296.15 K, beam displacement method, x1 = 0.699",1.461 ± 0.005
same,refractive index,"[1]; 314.15 K, Standard Abbe refractometry, x1 = 0.299",1.42 ± 0.001
same,refractive index,"[1]; 322.99 K, beam displacement method, x1 = 0.5",1.436 ± 0.005
same,refractive index,"[1]; 323.15 K, beam displacement method, x1 = 0.299",1.417 ± 0.005
same,refractive index,"[1]; 331.65 K, Standard Abbe refractometry, x1 = 0.299",1.415 ± 0.001
same,refractive index,"[1]; 347.96 K, beam displacement method, x1 = 0.5",1.43 ± 0.005
same,refractive index,"[1]; 348.15 K, beam displacement method, x1 = 0.299",1.411 ± 0.005
same,refractive index,"[1]; 348.45 K, beam displacement method, x1 = 0.699",1.445 ± 0.005
same,refractive index,"[1]; 373.05 K, beam displacement method, x1 = 0.699",1.438 ± 0.005
same,refractive index,"[1]; 373.16 K, beam displacement method, x1 = 0.299",1.403 ± 0.005
same,refractive index,"[1]; 373.23 K, beam displacement method, x1 = 0.5",1.423 ± 0.005
same,refractive index,"[1]; 398.11 K, beam displacement method, x1 = 0.5",1.417 ± 0.005
same,refractive index,"[1]; 398.15 K, beam displacement method, x1 = 0.299",1.396 ± 0.005
same,refractive index,"[1]; 398.25 K, beam displacement method, x1 = 0.699",1.431 ± 0.005
same,refractive index,"[1]; 421.85 K, beam displacement method, x1 = 0.699",1.424 ± 0.005
same,refractive index,"[1]; 423.15 K, beam displacement method, x1 = 0.5",1.409 ± 0.005
same,binary diffusion coefficient,"[2]; 322.99 K, x1 = 0.5",2.54e-10 m2/s
same,binary diffusion coefficient,"[2]; 323.07 K, x1 = 0.699",1.4e-10 m2/s
same,binary diffusion coefficient,"[2]; 323.15 K, x1 = 0.299",5.6e-10 m2/s
same,binary diffusion coefficient,"[2]; 347.98 K, x1 = 0.5",5.69e-10 m2/s
same,binary diffusion coefficient,"[2]; 348.19 K, x1 = 0.299",1.04e-09 m2/s
same,binary diffusion coefficient,"[2]; 351.63 K, x1 = 0.699",3.69e-10 m2/s
same,binary diffusion coefficient,"[2]; 372.92 K, x1 = 0.699",6.93e-10 m2/s
same,binary diffusion coefficient,"[2]; 373.17 K, x1 = 0.5",1.04e-09 m2/s
same,binary diffusion coefficient,"[2]; 373.3 K, x1 = 0.299",1.73e-09 m2/s
same,binary diffusion coefficient,"[2]; 397.7 K, x1 = 0.699",1.45e-09 m2/s
same,binary diffusion coefficient,"[2]; 398.05 K, x1 = 0.299",2.84e-09 m2/s
same,binary diffusion coefficient,"[2]; 398.12 K, x1 = 0.5",1.9e-09 m2/s
same,binary diffusion coefficient,"[2]; 422.61 K, x1 = 0.299",4.12e-09 m2/s
same,binary diffusion coefficient,"[2]; 423.15 K, x1 = 0.5",2.87e-09 m2/s
same,binary diffusion coefficient,"[2]; 448.21 K, x1 = 0.5",4.8e-09 m2/s
